Laboratory results as given in US20260125375A1 (Pfizer Inc., priority 2022, published 2026).
Like-named read-outs stand apart in the source and are kept apart here.

Legend:
[1] = target: T1, WT CBL-B (36-427) (Homo sapiens, UniProt Q13191); test: Surface Plasmon Resonance (SPR) assay, binding affinity and kinetics, CBL-B; settings: SPR at 10° C., biotinylated WT CBL-B (36-427) on streptavidin chip; geometric mean; read-out: CBL-B SPR Kd (nM) GMean
T1 construct: N-terminal biotinylated WT CBL-B (36-427) and C-CBL (46-435) were captured on a streptavidin (SA) coated sensor chip
T1 sequence (Q13191 36-427): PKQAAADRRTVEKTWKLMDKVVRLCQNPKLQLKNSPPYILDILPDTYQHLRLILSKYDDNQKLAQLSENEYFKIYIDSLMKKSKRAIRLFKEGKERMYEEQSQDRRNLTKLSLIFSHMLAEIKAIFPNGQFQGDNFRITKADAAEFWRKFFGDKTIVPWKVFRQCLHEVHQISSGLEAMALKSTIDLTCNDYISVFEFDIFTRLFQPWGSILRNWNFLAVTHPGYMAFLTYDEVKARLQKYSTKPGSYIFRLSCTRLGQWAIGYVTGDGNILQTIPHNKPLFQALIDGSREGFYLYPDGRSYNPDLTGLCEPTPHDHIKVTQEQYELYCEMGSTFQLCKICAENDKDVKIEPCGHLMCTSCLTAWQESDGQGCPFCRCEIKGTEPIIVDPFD
Summary of the method: (§1)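 SPR kinetics at 10° C, run either single-cycle (0.001–1 μM, 3-fold, 6 points, 120 s on, >5400 s off) or multi-cycle (10 points, 2-fold, top 10 or 100 μM, 90 s on). Proteins were N-biotinylated CBL-B (36-427) and C-CBL (46-435) on SA surfaces, in pH 7.2 HEPES, 2% DMSO.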

[2] = target: T2, CBL-B (Homo sapiens, UniProt Q13191); test: Jurkat HiBit-IL2 assay (c-CBL KO), reporter cell line expressing CBL-B only; type: cell-based; settings: geometric mean, read-out: C-CBL KO EC50 (nM) GMean
T2 construct: endogenous in cells; host or cells: Jurkat HiBit-IL2 reporter cells, C-CBL knocked out by CRISPR
T2 sequence (Q13191 whole entry): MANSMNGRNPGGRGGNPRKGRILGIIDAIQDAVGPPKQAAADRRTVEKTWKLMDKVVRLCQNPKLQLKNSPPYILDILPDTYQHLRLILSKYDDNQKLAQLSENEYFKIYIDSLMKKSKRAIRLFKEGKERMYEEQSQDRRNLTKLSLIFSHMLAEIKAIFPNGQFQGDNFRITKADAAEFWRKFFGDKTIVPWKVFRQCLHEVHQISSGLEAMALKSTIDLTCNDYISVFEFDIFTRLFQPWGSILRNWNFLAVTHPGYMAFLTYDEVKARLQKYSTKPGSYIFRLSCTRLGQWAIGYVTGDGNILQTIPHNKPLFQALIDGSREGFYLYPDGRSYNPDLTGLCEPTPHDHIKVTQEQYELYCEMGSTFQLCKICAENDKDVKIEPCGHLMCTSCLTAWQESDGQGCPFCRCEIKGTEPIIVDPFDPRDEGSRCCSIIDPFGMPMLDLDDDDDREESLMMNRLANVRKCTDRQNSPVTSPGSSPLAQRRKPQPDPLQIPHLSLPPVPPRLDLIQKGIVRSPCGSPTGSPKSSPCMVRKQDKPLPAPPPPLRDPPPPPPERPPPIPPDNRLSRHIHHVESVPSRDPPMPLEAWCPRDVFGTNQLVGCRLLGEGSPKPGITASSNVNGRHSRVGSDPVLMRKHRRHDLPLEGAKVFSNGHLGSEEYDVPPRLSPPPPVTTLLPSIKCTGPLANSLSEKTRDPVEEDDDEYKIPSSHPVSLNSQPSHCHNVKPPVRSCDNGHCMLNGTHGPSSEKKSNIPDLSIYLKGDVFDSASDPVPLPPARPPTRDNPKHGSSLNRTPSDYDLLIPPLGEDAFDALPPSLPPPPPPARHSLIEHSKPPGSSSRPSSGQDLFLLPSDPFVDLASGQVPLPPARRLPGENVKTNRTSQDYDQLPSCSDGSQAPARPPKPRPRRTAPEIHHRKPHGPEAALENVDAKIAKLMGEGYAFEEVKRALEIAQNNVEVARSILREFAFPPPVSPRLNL
Summary of the method: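 IL-2 secretion was measured by HiBiT luminescence after 1 h compound exposure (0.1% DMSO) and 4 h TCR/CD28 stimulation (final anti-CD3 1 μg/ml, anti-CD28 2 μg/ml, 37 °C) of Jurkat reporters lacking c-CBL or CBL-B. EC50 came from fold-of-effect versus stimulated-only cells, as geometric means across tests.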

[3] = target: T3, C-CBL (46-435) (Homo sapiens, UniProt P22681); test: Surface Plasmon Resonance (SPR) assay, binding affinity and kinetics, C-CBL; settings: SPR at 10° C., biotinylated C-CBL (46-435) on streptavidin chip; geometric mean; read-out: C-CBL SPR Kd (nM) GMean
T3 construct: N-terminal biotinylated WT CBL-B (36-427) and C-CBL (46-435) were captured on a streptavidin (SA) coated sensor chip
T3 sequence (P22681 46-435): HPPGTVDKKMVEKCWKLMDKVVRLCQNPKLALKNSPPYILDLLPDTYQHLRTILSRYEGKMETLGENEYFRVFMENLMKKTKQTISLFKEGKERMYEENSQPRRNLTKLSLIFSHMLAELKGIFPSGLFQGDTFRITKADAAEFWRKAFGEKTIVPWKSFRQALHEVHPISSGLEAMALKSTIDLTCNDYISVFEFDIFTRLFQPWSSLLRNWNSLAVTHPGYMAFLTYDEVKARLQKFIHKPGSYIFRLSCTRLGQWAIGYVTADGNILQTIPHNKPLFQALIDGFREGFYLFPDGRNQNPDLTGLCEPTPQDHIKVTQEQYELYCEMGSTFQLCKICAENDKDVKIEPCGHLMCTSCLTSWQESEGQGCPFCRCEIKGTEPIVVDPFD
Summary of the method: as §1

[4] = c-CBL KO (CBL-B only), anti-CD3/anti-CD28 stimulation 4 hours, Table 16a
[5] = C-CBL KO (expressing CBL-B only), Table 16b (further repetition)

CC(c1nc(C(F)(F)F)cc2c(-c3cccc(C4(Cc5nncn5C)COC4)c3)n[nH]c12)N1CCCCC1 (single isomer, unassigned) [Example C22, 3-(3-{3-[(4-methyl-4H-1,2,4-triazol-3-yl)methyl]oxetan-3-yl}phenyl)-7-[(1ξ)-1-(piperidin-1-yl)ethyl]-5-(trifluoromethyl)-1H-pyrazolo[3,4-c]pyridine]
Kd [1]: 8.2 nM
EC50 [2, 4]: 120 nM
Kd [3]: 116 nM

C[C@H](N[C@@H]1CC[C@@H]1O)c1nc(C(F)(F)F)cc2c(-c3cccc([C@H](c4nncn4C)C4CCC4)c3)n[nH]c12 (single isomer, unassigned) [Example D28]
Kd [1]: 0.4 nM
EC50 [2, 4]: 1 nM
Kd [3]: 2.2 nM

C[C@H](c1nc(C(F)(F)F)cc2c(-c3cccc(C4(Cc5nncn5C)COC4)c3)n[nH]c12)N1CC[C@@H](F)C1 (single isomer, unassigned) [Example D10]
Kd [1]: 2.8 nM
EC50 [2, 4]: 102 nM
Kd [3]: 42 nM

C[C@H](NC1CCCC1)c1nc(C(F)(F)F)cc2c(-c3cccc([C@H](c4nncn4C)C4CCC4)c3)n[nH]c12 (single isomer, unassigned) [Example C10]
Kd [1]: 11.5 nM
EC50 [2, 4]: 233 nM
Kd [3]: 189 nM

CC(c1nc(C(F)(F)F)cc2c(-c3cccc(C4(Cc5nncn5C)COC4)c3)n[nH]c12)N1CCOCC1 (single isomer, unassigned) [Example C23, 3-(3-{3-[(4-methyl-4H-1,2,4-triazol-3-yl)methyl]oxetan-3-yl}phenyl)-7-[(1ξ)-1-(morpholin-4-yl)ethyl]-5-(trifluoromethyl)-1H-pyrazolo[3,4-c]pyridine]
Kd [1]: 5.1 nM
EC50 [2, 4]: 152 nM
Kd [3]: 29.4 nM

CC(c1nc(C(F)(F)F)cc2c(-c3cccc(C4(Cc5nncn5C)COC4)c3)n[nH]c12)N1CCC[C@H](C)C1 (single isomer, unassigned) [Example C19]
Kd [1]: 2.4 nM
EC50 [2, 4]: 56 nM
Kd [3]: 51.3 nM

C[C@H](c1nc(C(F)(F)F)cc2c(-c3cccc(C4(Cc5nncn5C)COC4)c3)n[nH]c12)N1C[C@H](F)[C@@H](F)C1 (single isomer, unassigned) [Example D8]
Kd [1]: 15.8 nM
EC50 [2, 4]: 603 nM
Kd [3]: 177 nM

CC(NC1CNC1)c1nc(C(F)(F)F)cc2c(-c3cccc(C4(Cc5nncn5C)COC4)c3)n[nH]c12 (single isomer, unassigned) [Example C27, N-{(1ξ)-1-[3-(3-{3-[(4-methyl-4H-1,2,4-triazol-3-yl)methyl]oxetan-3-yl}phenyl)-5-(trifluoromethyl)-1H-pyrazolo[3,4-c]pyridin-7-yl]ethyl}azetidin-3-amine]
Kd [1]: 8.7 nM
EC50 [2, 4]: > 1290 nM
Kd [3]: 71 nM

C[C@H](N[C@@H]1CCOC1)c1nc(C(F)(F)F)cc2c(-c3cccc([C@H](c4nncn4C)C4CCC4)c3)n[nH]c12 (single isomer, unassigned) [Example D2]
Kd [1]: 3.8 nM
EC50 [2, 5]: 83 nM
EC50 [2, 4]: 42 nM
Kd [3]: 108 nM

C[C@@H](NC1CC(F)(F)C1)c1nc(C(F)(F)F)cc2c(-c3cccc([C@H](c4nncn4C)C4CCC4)c3)n[nH]c12 (single isomer, unassigned) [Example D91]
Kd [1]: 6.3 nM
EC50 [2, 5]: 41 nM
Kd [3]: 35.4 nM

Cn1cnnc1[C@@H](c1cccc(-c2n[nH]c3cnc(C(F)(F)F)cc23)c1)C1CCC1 [Example A1, 3-{3-[(R)-cyclobutyl(4-methyl-4H-1,2,4-triazol-3-yl)methyl]phenyl}-5-(trifluoromethyl)-1H-pyrazolo[3,4-c]pyridine]
Kd [1]: 34.6 nM
EC50 [2, 5]: 1810 nM
EC50 [2, 4]: > 2990 nM
Kd [3]: 931 nM

C[C@@H]1CCCN(Cc2nc(C(F)(F)F)cc3c(-c4cccc(C5(Cc6nncn6C)COC5)c4)n[nH]c23)C1 [Example C29, 7-{[(3R)-3-methylpiperidin-1-yl]methyl}-3-(3-{3-[(4-methyl-4H-1,2,4-triazol-3-yl)methyl]oxetan-3-yl}phenyl)-5-(trifluoromethyl)-1H-pyrazolo[3,4-c]pyridine]
Kd [1]: 3.8 nM
EC50 [2, 4]: 204 nM
Kd [3]: 195 nM

C[C@H](N[C@H]1C[C@@H](O)C1)c1nc(C(F)(F)F)cc2c(-c3cccc([C@H](c4nncn4C)C4CCC4)c3)n[nH]c12 (single isomer, unassigned) [Example C36]
Kd [1]: 2 nM
EC50 [2, 5]: 35 nM
EC50 [2, 4]: 20 nM
Kd [3]: 17.9 nM

C[C@H](N[C@H]1CCC[C@@H]1O)c1nc(C(F)(F)F)cc2c(-c3cccc([C@H](c4nncn4C)C4CCC4)c3)n[nH]c12 (single isomer, unassigned) [Example C47]
Kd [1]: 1.6 nM
EC50 [2, 5]: 11 nM
EC50 [2, 4]: 5 nM
Kd [3]: 7.2 nM

C[C@H](N)c1nc(C(F)(F)F)cc2c(-c3cccc([C@H](c4nncn4C)C4CCC4)c3)n[nH]c12 [Example K12, (1S)-1-[3-{3-[(R)-cyclobutyl(4-methyl-4H-1,2,4-triazol-3-yl)methyl]phenyl}-5-(trifluoromethyl)-1H-pyrazolo[3,4-c]pyridin-7-yl]ethan-1-amine]
Kd [1]: 4.2 nM
EC50 [2, 5]: 895 nM
Kd [3]: 209 nM

C[C@H](N[C@H]1CCC(F)(F)C1)c1nc(C(F)(F)F)cc2c(-c3cccc(C4(Cc5nncn5C)COC4)c3)n[nH]c12 (single isomer, unassigned) [Example C12]
Kd [1]: 0.8 nM
EC50 [2, 5]: 8 nM
EC50 [2, 4]: 4 nM
Kd [3]: 1.8 nM

CC1CN(Cc2nc(C(F)(F)F)cc3c(-c4cccc(C5(Cc6nncn6C)COC5)c4)n[nH]c23)CCC1(F)F (single isomer, unassigned) [Example C32, 7-{[(3ξ)-4,4-difluoro-3-methylpiperidin-1-yl]methyl}-3-(3-{3-[(4-methyl-4H-1,2,4-triazol-3-yl)methyl]oxetan-3-yl}phenyl)-5-(trifluoromethyl)-1H-pyrazolo[3,4-c]pyridine]
Kd [1]: 0.8 nM
EC50 [2, 5]: 49 nM
EC50 [2, 4]: 83 nM
Kd [3]: 42.6 nM

C[C@@H](N[C@@H]1CCC(F)(F)C1)c1nc(C(F)(F)F)cc2c(-c3cccc(C4(Cc5nncn5C)COC4)c3)n[nH]c12 (single isomer, unassigned) [Example C18]
Kd [1]: 0.7 nM
EC50 [2, 5]: 19 nM
EC50 [2, 4]: 17 nM
Kd [3]: 6.2 nM

Cn1cnnc1[C@@H](c1cccc(-c2n[nH]c3c(CN[C@H]4CCC[C@@H]4O)nc(C(F)(F)F)cc23)c1)C1CCC1 [Example C4, (1S,2S)-2-({[3-{3-[(R)-cyclobutyl(4-methyl-4H-1,2,4-triazol-3-yl)methyl]phenyl}-5-(trifluoromethyl)-1H-pyrazolo[3,4-c]pyridin-7-yl]methyl}amino)cyclopentan-1-ol]
Kd [1]: 2.1 nM
EC50 [2, 4]: 114 nM
Kd [3]: 49.9 nM

CC(NC1CNC1)c1nc(C(F)(F)F)cc2c(-c3cccc(C4(Cc5nncn5C)COC4)c3)n[nH]c12 (single isomer, unassigned) [Example C28, N-{(1ξ)-1-[3-(3-{3-[(4-methyl-4H-1,2,4-triazol-3-yl)methyl]oxetan-3-yl}phenyl)-5-(trifluoromethyl)-1H-pyrazolo[3,4-c]pyridin-7-yl]ethyl}azetidin-3-amine]
Kd [1]: 17.3 nM
EC50 [2, 4]: > 2070 nM
Kd [3]: 125 nM
